These results are taken from patent US6376682B1, “Compound with α-glucosidase inhibiting action and method for producing the same” (Takama System, Ltd., priority 2000, dated 2002).

In experiment [1] the test system is blood sugar elevation caused by sucrose loading. The experiment in a line: Inhibiting effect on hyperglycemia in the case of sucrose loading. In kind it is in vivo, male Wistar rats. The conditions noted are these: rats; for Rate of inhibition of blood sugar elevation 30 minutes: po, 30 minutes after sucrose loading. Here is the method: The test was oraly administered as an aqueous solution to fasting male Wistar rats (body weight: 130 to 170 g.
Next after 30 minutes, the sucrose was orally administered to the rats.
Then, 30 minutes, after the administered of the sugar, 0.4 ml of blood was taken from the neck artery of each animal with the animal under restraint without anesthesia (during blood collection only). following colling with ice water, the blood serum was separated by centrifuging, and the glucose concentration (blood sugar level) was measured by the glucose oxidase method (Glucose CII Test Wako).
The above-described test was performed for the novel compound SP (product of the present invention) and Acabose(clnventional roduct).

Experiment [2] concerns the target T1, isomaltase originating in the small intestines of rats (Rattus norvegicus, UniProt P23739).
T1 construct: The brush border membrane obtained from the jejunum of male Wistar rats (body weight: 150 to 350 g) was used as a crude enzyme; from tissue; host or cells: jejunal brush border membrane of male Wistar rats
The experiment in a line: Inhibiting effect on isomaltase, rat jejunum brush border membrane crude enzyme. The experiment is classed as biochemical. The conditions noted are these: times stronger than Acarbose.
Procedure: The brush border membrane obtained from the jejunum of male Wistar rats (body weight: 150 to 350 g) was used as a crude enzyme.
The brush border membrane was suspended in a 0.01 M maleic acid buffer solution (pH=6.0), and this suspension was diluted to a concentration at which the substrate was hydrolyzed at the rate of approximately 25 to 50 n/mol/ml/minute.
For maltase, sucrase and isomaltase, 100 μL of various concentrations of the test drug was added to 50 μL of respective 74 mM maltose, sucrose and isomaltose (used as substrates), and the resulting preparations were pre-heated for 2 to 3 minutes at 37° C.
Next, 50 μL of the enzyme solution was added, and a reaction was performed for 30 minutes. The reaction was stopped by adding 800 μL of water, and placing the reaction mixture in a water bath at 92 to 97° C. for 2 minutes.
The amount of glucose produced was measured by the glucose oxidase method (Glucose CII Test Wako).
In the above, the substrates and test drug were both dissolved in a maleic acid buffer solution (pH=6.0) prior to use.

The test system of experiment [3] is β-glucosidase originating in almonds. The experiment in a line: Activity inhibiting effect on β-glucosidase. In kind it is biochemical. The conditions noted are these: substrate p-nitrophenol-β-D-glycopyronoside, pH 5.0. Here is the method: β-glucosidase originating in almonds (manufactured by Sigma Co.) was dissolved in a 0.1 M acetic acid buffer solution (pH=5.0), and this solution was diluted to a concentration at which the substrate was hydrolyzed at the rate of 5 n/mol/ml/minute.
100 μL of the test drug was added to 50 μL of 10 mM p-nitrophenol-β-D-glycopyronoside (manufactured by Sigma Co.) used as a substrate, and this mixture was preheated for 5 minutes at 37° C.
Next, 50 μL of the enzyme solution was added, and a reaction was performed for 15 minutes. The reaction was stopped by adding 200 μL of a 0.2 M sodium carbonate solution.
The amount of p-nitrophenol produced was determined from the absorbance at 400 nm.
The substrate and test drug were both dissolved in a 0.1 M acetic acid buffer solution (pH=5.0) prior to use.

T1 sequence (P23739 whole entry): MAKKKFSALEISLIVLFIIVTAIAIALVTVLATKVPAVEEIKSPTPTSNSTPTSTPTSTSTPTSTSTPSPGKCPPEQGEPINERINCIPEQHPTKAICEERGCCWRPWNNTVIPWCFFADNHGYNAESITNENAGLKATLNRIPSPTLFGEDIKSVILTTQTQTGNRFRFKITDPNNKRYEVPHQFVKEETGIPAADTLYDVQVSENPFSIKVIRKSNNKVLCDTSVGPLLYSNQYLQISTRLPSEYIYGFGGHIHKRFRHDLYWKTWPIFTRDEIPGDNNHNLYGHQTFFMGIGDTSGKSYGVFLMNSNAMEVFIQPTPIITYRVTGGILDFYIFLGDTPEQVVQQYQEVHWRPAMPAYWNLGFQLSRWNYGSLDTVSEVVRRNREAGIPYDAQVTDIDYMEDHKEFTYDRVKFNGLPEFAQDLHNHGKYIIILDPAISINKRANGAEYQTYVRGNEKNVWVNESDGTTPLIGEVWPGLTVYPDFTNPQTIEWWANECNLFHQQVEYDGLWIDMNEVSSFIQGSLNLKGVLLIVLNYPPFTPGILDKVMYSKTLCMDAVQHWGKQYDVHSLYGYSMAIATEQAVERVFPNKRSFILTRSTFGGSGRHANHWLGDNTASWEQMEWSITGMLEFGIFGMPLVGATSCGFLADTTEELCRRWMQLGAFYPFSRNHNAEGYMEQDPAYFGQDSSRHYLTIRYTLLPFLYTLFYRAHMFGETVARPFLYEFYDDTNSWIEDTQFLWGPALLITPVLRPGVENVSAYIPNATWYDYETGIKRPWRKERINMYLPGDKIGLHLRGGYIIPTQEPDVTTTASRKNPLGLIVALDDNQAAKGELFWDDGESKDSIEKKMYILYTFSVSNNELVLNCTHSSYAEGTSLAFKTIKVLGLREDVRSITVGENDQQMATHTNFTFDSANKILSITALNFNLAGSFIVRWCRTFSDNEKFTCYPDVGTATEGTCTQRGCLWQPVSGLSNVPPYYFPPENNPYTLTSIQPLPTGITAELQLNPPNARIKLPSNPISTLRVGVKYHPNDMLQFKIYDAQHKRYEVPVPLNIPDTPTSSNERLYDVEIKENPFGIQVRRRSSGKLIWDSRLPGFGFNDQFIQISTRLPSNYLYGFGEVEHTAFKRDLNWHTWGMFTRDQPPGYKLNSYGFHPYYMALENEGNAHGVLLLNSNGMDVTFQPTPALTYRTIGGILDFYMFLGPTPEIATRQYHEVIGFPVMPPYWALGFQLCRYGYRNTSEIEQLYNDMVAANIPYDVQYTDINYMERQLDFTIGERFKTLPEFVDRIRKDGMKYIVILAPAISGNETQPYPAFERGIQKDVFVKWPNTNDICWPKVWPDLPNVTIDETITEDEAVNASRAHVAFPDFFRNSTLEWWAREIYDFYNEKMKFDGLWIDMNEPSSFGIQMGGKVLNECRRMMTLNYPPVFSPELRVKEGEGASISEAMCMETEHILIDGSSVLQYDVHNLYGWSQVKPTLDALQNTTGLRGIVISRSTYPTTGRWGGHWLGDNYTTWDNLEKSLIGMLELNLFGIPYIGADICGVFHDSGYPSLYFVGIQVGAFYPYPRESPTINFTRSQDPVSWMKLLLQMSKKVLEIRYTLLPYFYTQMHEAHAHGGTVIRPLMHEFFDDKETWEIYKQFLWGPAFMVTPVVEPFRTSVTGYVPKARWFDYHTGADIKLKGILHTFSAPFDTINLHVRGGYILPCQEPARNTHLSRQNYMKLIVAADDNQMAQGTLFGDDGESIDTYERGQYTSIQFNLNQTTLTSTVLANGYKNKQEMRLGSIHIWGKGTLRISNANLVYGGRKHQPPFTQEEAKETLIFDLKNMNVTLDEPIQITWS

As for `C[C@H]1O[C@H](O[C@H]2[C@H](O)[C@@H](O)[C@@H](O[C@H]3[C@H](O)[C@@H](O)C(O)O[C@@H]3CO)O[C@@H]2CO)[C@H](O)[C@@H](O)[C@@H]1N[C@H]1C=C(CO)[C@@H](O)[C@H](O)[C@H]1O` (stereo partly drawn) [Acarbose, reference compound], the “Rate of inhibition of blood sugar elevation 30 minutes” value is on record as 33.4 ± 6.2 in experiment [1] (5 mg/kg), 48.5 ± 6.9 in experiment [1] (10 mg/kg) and 73.8 ± 5.2 in experiment [1] (25 mg/kg).

For `O=S(=O)([O-])OC(CO)C(O)C[S+]1CC(O)C(O)C1CO` (stereo not drawn) [SP], the “Rate of inhibition of blood sugar elevation 30 minutes” value in experiment [1] (5 mg/kg) stood at 40.5 ± 2.3; in experiment [1] (10 mg/kg), 62.1 ± 3.8; in experiment [1] (25 mg/kg) it was 89.1 ± 3.5. Further, in experiment [1] (sucrose loading), the “Effect in inhibiting the elevation of blood sugar levels compared with Acarbose” value was “stronger effect in inhibiting the elevation of blood sugar levels than Acarbose”. Further, the “Inhibitory effect against isomaltose relative to Acarbose” value in experiment [2] is given as “more than 200 times”. Also, the “Activity inhibiting effect on β-glucosidase” value in experiment [3] was “no activity inhibiting effect”.
